Here are results for 1 molecule from patent US20230149537A1, “VACCINES, ADJUVANTS, AND METHODS OF GENERATING AN IMMUNE RESPONSE” (priority 2020, published 2023).

Structures are written as SMILES.

Assay [1] deals with SARS-CoV-2 Spike. On the set-up: species or system C57BL/6 mice. The following applies: mouse, in vivo, ip.
In assay [2] the test system is SARS-CoV-2 Spike. The arrangement: species or system  mice. Conditions: mouse, in vivo.
For assay [3], the system named is T cell. The arrangement: species or system C57BL/6 mice. The following applies: mouse, in vivo, ip.

Regarding `CCCCCCCCCCCC(=O)CC(=O)N[C@H](COCCCCCCCCCC)COP(=O)([O-])OCCNC(=O)NCCOP(=O)([O-])OC[C@@H](COCC[C@@H](CCCCCCC)OC(=O)CCCCCCCCCCC)NC(=O)CC(=O)CCCCCCCCCCC.[Na+].[Na+]` [Group E6020], the “IgG profile (IgG2/IgG1)” value in assay [1] is given as “significant higher IgG2 than with Alum alone”. For the same molecule, the “IgG1 and IgG2 Ab binding titers” value in assay [2] is listed as “increase in IgG2 production”. Further, the “Th1-type T cell responses” value in assay [3] was “significantly enhanced Th1-type T cell responses”.
